Tested on: human skin fibroblasts
Experiment: Collagen synthesis by human skin fibroblasts (3H-proline incorporation into collagenous protein)
Format: cell-based
Conditions: carnosine alone 60 mM, 48 h (FIG. 1 column 11)
Method: After starving for up to 6 hours, cells were exposed to a mixture of BMF and carnosine or the appropriate controls for 48 hours. Tritiated proline (L-[5-^3H] proline) was included in the culture medium and at the end of the experiments, the amount of ^3H proline incorporated into collagenous protein was determined as an index of collagen synthesis. A subset of cultures were treated with […] for the final 6-8 hours of the culture to determine the collagen-specific nature of incorporated radioactivity.
Human diploid ftbroblasts were obtained from neonatal foreskins collected from the Womens' and Chldrens' Hospital (North Adelaide, Australia). […]
Collagen was purified from the culture medium by successive precipitation with salt solutions at acid and neutral pH. […] The amount of radioactivity in the samples was determined using a Stcinillation counter (Wailac) as an index of the amount of new collagen synthesised. The radioactivity in each replicate well was normalised as a percentage of the average radioactivity present in the control wells from each experiment. […]

NCCC(=O)N[C@@H](Cc1c[nH]cn1)C(=O)O [Carnosine, beta-alanyl-L-histidine]
collagen synthesis: did not stimulate collagen synthesis
